Assay results published in publication PMC4189421, “Induction of Oligodendrocyte Differentiation and In Vitro Myelination by Inhibition of Rho-Associated Kinase” (ASN NEURO, 2014).
Like-named read-outs stand apart in the source and are kept apart here.

Key:
[1] = test system: MYPT1 phosphorylation in mNph-OPC; test: MYPT1 phosphorylation (sandwich ELISA, western blot) as ROCK target engagement; conditions: for Decrease of MYPT1 phosphorylation (ELISA): 4-hr mNph-OPC treatment
Procedure: Tris-glycine acrylamide-bysacrylamide gradient gel electrophoresis was performed as follows: After washing the cells with ice-cold PBS, protein lysates were made by adding 50 µl of PhosphoSafe extraction reagent (EMD Millipore) supplemented with antiprotease cocktail (cOmplete; Roche, Branford, CT) onto each 100-mm^2 cell culture plate. After detaching the cells with the help of a cell scraper and disrupting cell membranes by sonication, the protein extracts were centrifuged (10,000 g, 10 min, 4℃) and the supernatants separated. Protein content was measured by the BCA protein determination method (Biorad, Hercules, CA), and 30 µg of total protein was mixed with SDS sample buffer (Laemmli) supplemented with 1% β-mercaptoethanol. After heating the samples to 70℃ for 10 min, they were loaded onto 4% to 20% acryl-bysacrylamide gradient gels, and electrophoresis was carried out at 120 volts with constant amperage.
Resolved proteins were then transferred onto nitrocellulose membranes using the iBlot methodology and device (Life technologies). […] Secondary detection was performed using Li-Cor IRDye secondary anti-mouse and anti-rabbit antibodies, and near-infrared signal was detected by Li-Cor’s Odyssey imaging system.
We assessed MYPT1 phosphorylation in Nph-OPCs treated for 4 hr with ROCK inhibitors in a dose-response experiment and using a sandwich ELISA as a measuring method (MBL International).

rat mixed glial OPCs = test: Myelin protein expression in rat mixed glia-derived OPCs (qPCR, MBP ELISA); format: cell-based
Procedure: Rat postnatal OPCs were obtained as described elsewhere according to the original procedure of [McCarthy and […] (1980)]. In brief, postnatal Day 1 rat pups were sacrificed, and cerebral cortices dissected and mechanically dissociated in medium composed of DMEM, 10% heat inactivated fetal bovine serum, and 5 μg/ml penicillin/streptomycin. Dissociated cells were plated and maintained in 75-cm^2 culture flasks for 10 days, replenishing with fresh media at Days 3 and 7. At Day 10, the flasks were shaken on a heated (37°C) shaker for 1 hr at 110 rpm to separate loosely attached microglial cells. The medium was replenished, and the cells incubated for the remainder of the day. To dislodge OPCs from the astrocyte monolayer, flasks were shaken overnight (210 rpm, 37°C). […] Cells were then plated on PDL-coated tissue culture plastic and treated with test compounds. […] The results are presented as specific mRNA expression relative to either β-actin or β-tubulin, used as internal controls as indicated. OPCs isolated from rat mixed glial cultures are known to mature readily in the absence of mitogens achieving a premyelinating OL stage as determined by the expression of the cell surface sulfatide O4, and the myelin proteins MBP and PLP among others ([Armstrong, 1998]; [Barbarese & Pfeiffer, 1981]; [[…], 1999]; [Jung-[…], Schumacher, Robel, & Baulieu, 1996]; [Konola, Tyler, Yamamura, & Lees, 1991]). They also display marked morphological changes, progressing from bipolar to multibranched cells generating membranous structures, and probably represent a later developmental stage than Nph-OPC. In rat mixed glial OPCs, we measured myelin protein expression at the RNA level by qPCR and MBP production by ELISA (MBL International, Woburn, MA).

[2] = test system: human pluripotent stem cell-derived OPCs (hSC-OPCs); test: Human stem cell-derived OPC differentiation assay (O4 staining, ArrayScan); format: cell-based; conditions: for EC50: Homo sapiens
Procedure: Human oligodendrocytes were generated by a proprietary methodology of […] (Weizmann Science Park, Nes-Ziona, Israel; […].com). In brief, 5,000 human embryonic stem cell-derived OPCs (hES-OPCs) were seeded in each well of Matrigel and PDL-coated 96-well black μClear plates (Greiner, Frickenhausen, Germany). […] Twenty-four hours after seeding, medium was removed, and 200 μl of DIF fresh medium containing the compound of interest at a specific dilution (in 0.1% DMSO) was supplemented to the cells (first feeding). Total volume for each well was 200 μl. Four replicates were used for each dose of compound under study. After 48 hr, the media were replenished by removing 100 μl of media, and the same amount of fresh DIF media was added to the wells. Only at the first feeding, DIF media with 0.1% DMSO were used as control of the compound in medium containing 0.1% DMSO. Two experimental sets were conducted for the differentiation assay. On Day 21, live staining of oligodendrocytes was done by incubating the cells with O4 antibody (R&D Systems, Minneapolis, MN) for 20 min followed by detection with goat anti-mouse IgM-FITC (Chemicon) for additional 20 min. Cells were washed twice using DIF media. Immediately after, cells were fixed using 4% paraformaldehyde, and then washed with 1 × PBS, and 4',6-diamidino-2-phenylindole (DAPI; Sigma) was used for nuclear staining. […] Cellomics Neural profiling bioapplication was used for processing and analyzing the images. The 4-parameter Hill-Slope curve fittings were generated by GraphPad Prism software using the least squares fitting method, and EC50 values were calculated for the three major parameters of oligodendrocyte differentiation: number of differentiated oligodendrocytes, number of oligodendrocyte processes, and oligodendrocytes processes length (μm). The negative control groups of each experimental set were used for data normalization. We additionally studied the effect of ROCK inhibition in cultures of OPCs of human origin. […]

mouse-derived OPCs = test: Myelin protein mRNA expression in mouse-derived OPCs (qPCR); format: cell-based; conditions: mouse-derived OPCs exposed for 4 days
Procedure: Neurospheres (Nph) were prepared from embryos at 14.5 days of gestation obtained from timed pregnant females of C57/Bl6 mice, as previously described ([Kornblum, Yanni, Easterday, & Seroogy, 2000]; [Pedraza, Monk, Lei, Hao, & Macklin, 2008]). In brief, after separation of meninges and cerebellum, cerebrum tissue was mechanically triturated with a 1-ml micropipette until total tissue dissociation was achieved, filtered through a 70 -µm cell strainer (Fisher Scientific, Pittsburgh, PA), and plated in 25-cm^2 plastic culture flasks (2 brains/flask). Nph proliferation media (NPM) consisted of Dulbecco’s Modified Eagle Medium (DMEM)/F12, B27 neuronal supplement (Gibco, Baltimore, MD) and 10 ng/ml […] (EGF; Sigma, St. Louis, MO). After 48 to 72 hr, floating Nphs were passaged at a 1 : 1 ratio into 75-cm^2 culture flasks. After a further 48 to 72 hr, they were passaged into 150-cm^2 flasks. […]
Total RNA was isolated from single-cell cultures or tissue explants using Tri-Zol reagent (Gibco). cDNA was generated from 1 to 3 µg of total RNA by Retrotranscriptase II (Gibco) reaction, and the selected transcripts were detected and amplified by quantitative RT-PCR in an Applied Biosystems (Grand Island, NY) 7500 fast qPCR machine, following the manufacturer’s instructions. […]

Structure (SMILES): C[C@@H](N)[C@H]1CC[C@H](C(=O)Nc2ccncc2)CC1.Cl.Cl [Y0503, trans-4-[(1 R)-1-aminoethyl]-N-4-pyridinylcyclohexanecarboxamide dihydrochloride]
- Decrease of MYPT1 phosphorylation (ELISA) ([1]; 30 µM): ~80%
- Decrease of MYPT1 phosphorylation (ELISA) ([1]; 100 µM): more than 80%
- Duration of downregulation of MYPT1 phosphorylation (western blot) ([1]; control levels again after 24 hr of treatment): over 12 hr
- Expression of MBP, PLP, and MOG mRNAs (qPCR) (rat mixed glial OPCs; 3 days maturation +4 days treatment, concentrations as low as 0.1 µM): significant increase
- MBP at the protein level (ELISA) (rat mixed glial OPCs; treatments at 24 hr and 72 hr after plating): increased expression
- EC50 ([2]; read-out: OLs processes count / well EC50): 0.0885 µM
- EC50 ([2]; read-out: OLs processes total length / well EC50): 0.138 µM
- Differentiation into O4-positive premyelinating stage ([2]; hSC-OPCs treated 48 hr, 21 days culture): dose-response differentiation effect
- MBP and PLP mRNA (mouse-derived OPCs): increased significantly
